Results: patent US20240025884A1 (Dong-A ST Co., Ltd., priority 2022, published 2024)
pIC50: −log10 of the molar value.

What follows are compounds tested against GCN2 (Homo sapiens (Human), UniProt Q9P2K8) (assay: GCN2 Biochemical Assay (TR-FRET, GFP-eIF2S1 substrate phosphorylation)). Settings: read-out: IC50 (GCN2 Inhibitory Activity).
In short: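 TR-FRET readout (Ex 340, Em 490/520 nm) after 2–3 h with Tb-labelled phospho-eIF2S1 antibody in stop mix, following a 70 min room-temperature kinase step. Reaction: in-house GCN2, GFP-eIF2S1, ATP, tRNA in Tris pH 7.5 (2× stocks 1.6 nM, 50 nM, 0.2 mM); compounds tested at 10 concentrations, with a phospho-substrate artifact counter-plate.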

Sequence of GCN2 (Q9P2K8 whole entry): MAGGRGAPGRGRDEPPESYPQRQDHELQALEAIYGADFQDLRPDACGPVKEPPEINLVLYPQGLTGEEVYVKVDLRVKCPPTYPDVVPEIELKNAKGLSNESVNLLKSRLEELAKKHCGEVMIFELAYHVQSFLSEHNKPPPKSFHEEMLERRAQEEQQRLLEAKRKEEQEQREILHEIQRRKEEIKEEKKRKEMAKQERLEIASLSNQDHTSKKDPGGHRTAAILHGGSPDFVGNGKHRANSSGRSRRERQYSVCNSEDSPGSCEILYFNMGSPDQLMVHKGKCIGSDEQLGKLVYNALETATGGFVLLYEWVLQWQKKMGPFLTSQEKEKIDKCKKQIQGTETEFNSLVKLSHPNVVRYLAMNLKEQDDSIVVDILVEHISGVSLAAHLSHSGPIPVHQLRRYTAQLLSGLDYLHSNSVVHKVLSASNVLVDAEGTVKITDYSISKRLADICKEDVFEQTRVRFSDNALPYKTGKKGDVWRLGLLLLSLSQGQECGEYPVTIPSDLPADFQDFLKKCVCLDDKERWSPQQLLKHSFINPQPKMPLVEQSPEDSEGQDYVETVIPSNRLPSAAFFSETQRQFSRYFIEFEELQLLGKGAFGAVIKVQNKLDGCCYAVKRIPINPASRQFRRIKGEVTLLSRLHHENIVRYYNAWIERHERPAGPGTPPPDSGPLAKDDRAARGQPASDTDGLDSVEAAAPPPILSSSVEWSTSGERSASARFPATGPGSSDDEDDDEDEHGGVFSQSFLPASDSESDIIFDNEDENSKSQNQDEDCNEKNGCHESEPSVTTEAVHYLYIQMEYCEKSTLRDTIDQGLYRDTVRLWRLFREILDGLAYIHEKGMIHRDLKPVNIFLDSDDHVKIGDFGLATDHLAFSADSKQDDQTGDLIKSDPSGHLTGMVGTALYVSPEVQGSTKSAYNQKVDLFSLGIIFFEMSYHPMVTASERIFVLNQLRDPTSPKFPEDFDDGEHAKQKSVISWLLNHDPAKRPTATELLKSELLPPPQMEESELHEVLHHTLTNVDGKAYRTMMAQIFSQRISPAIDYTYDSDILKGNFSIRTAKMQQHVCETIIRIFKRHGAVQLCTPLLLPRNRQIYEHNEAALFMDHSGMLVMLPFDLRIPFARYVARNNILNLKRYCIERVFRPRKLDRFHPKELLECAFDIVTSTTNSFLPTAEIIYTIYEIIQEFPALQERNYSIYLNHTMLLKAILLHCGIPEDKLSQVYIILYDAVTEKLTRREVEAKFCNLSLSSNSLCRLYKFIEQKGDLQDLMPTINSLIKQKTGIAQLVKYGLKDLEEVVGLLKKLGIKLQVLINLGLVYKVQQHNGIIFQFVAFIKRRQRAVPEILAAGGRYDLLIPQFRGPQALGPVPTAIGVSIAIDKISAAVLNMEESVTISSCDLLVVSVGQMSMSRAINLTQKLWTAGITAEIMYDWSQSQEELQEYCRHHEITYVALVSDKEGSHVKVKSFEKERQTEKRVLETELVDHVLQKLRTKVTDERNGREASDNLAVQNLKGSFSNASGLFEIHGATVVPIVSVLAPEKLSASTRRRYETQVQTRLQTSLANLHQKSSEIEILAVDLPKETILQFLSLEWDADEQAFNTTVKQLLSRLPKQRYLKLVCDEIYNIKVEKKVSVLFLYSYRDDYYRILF

| Compound | pIC50 |
| --- | --- |
| CCNc1cncc(O[C@H]2CCN(CC(=O)Nc3cccc4c(-c5nc(Nc6cc(C)n(C)n6)ncc5C)c[nH]c34)C2)n1 [Example 244, (S)-N-(3-(2-((1,5-dimethyl-1H-pyrazol-3-yl)amino)-5-methylpyrimidin-4-yl)-1H-indol-7-yl)-2-(3-((6-(ethylamino)pyrazin-2-yl)oxy)pyrrolidin-1-yl)acetamide] | 7.00 to 8.00 |
| CCCNc1cncc(O[C@H]2CCN(CC(=O)Nc3cccc4c(-c5nc(Nc6cc(C)n(C)n6)ncc5C)c[nH]c34)C2)n1 [Example 245, (S)-N-(3-(2-((1,5-dimethyl-1H-pyrazol-3-yl)amino)-5-methylpyrimidin-4-yl)-1H-indol-7-yl)-2-(3-((6-(propylamino)pyrazin-2-yl)oxy)pyrrolidin-1-yl)acetamide] | 7.00 to 8.00 |
| Cc1cnc(Nc2cc(C)n(C)n2)nc1-c1c[nH]c2c(NC(=O)CN3CC[C@H](Oc4cncc(NCCO)n4)C3)cccc12 [Example 246, (S)-N-(3-(2-((1,5-dimethyl-1H-pyrazol-3-yl)amino)-5-methylpyrimidin-4-yl)-1H-indol-7-yl)-2-(3-((6-((2-hydroxyethyl)amino)pyrazin-2-yl)oxy)pyrrolidin-1-yl)acetamide] | 7.00 to 8.00 |
| Cc1cnc(Nc2cc(C)n(C)n2)nc1-c1c[nH]c2c(NC(=O)CN3CC[C@H](Oc4cncc(NCCN(C)C)n4)C3)cccc12 [Example 247, (S)-N-(3-(2-((1,5-dimethyl-1H-pyrazol-3-yl)amino)-5-methylpyrimidin-4-yl)-1H-indol-7-yl)-2-(3-((6-((2-(dimethylamino)ethyl)amino)pyrazin-2-yl)oxy)pyrrolidin-1-yl)acetamide] | > 8.00 |
| Cc1cnc(Nc2cc(C)n(C)n2)nc1-c1c[nH]c2c(NC(=O)CN3CC[C@H](Oc4cc(-c5ccccc5)ncn4)C3)cccc12 [Example 248, (S)-N-(3-(2-((1,5-dimethyl-1H-pyrazol-3-yl)amino)-5-methylpyrimidin-4-yl)-1H-indol-7-yl)-2-(3-((6-phenylpyrimidin-4-yl)oxy)pyrrolidin-1-yl)acetamide] | 7.00 to 8.00 |
| Cc1cnc(Nc2cc(C)n(C)n2)nc1-c1c[nH]c2c(NC(=O)CN3CC[C@H](Oc4cc(-c5cnn(C)c5)ncn4)C3)cccc12 [Example 249, (S)-N-(3-(2-((1,5-dimethyl-1H-pyrazol-3-yl)amino)-5-methylpyrimidin-4-yl)-1H-indol-7-yl)-2-(3-((6-(1-methyl-1H-pyrazol-4-yl)pyrimidin-4-yl)oxy)pyrrolidin-1-yl)acetamide] | > 8.00 |
| Cc1cnc(Nc2cc(C)n(C)n2)nc1-c1c[nH]c2c(NC(=O)CN3CC[C@H](Oc4cc(C5=CCC(C)(C)CC5)ncn4)C3)cccc12 [Example 250] | 6.00 to 7.00 |
| Cc1cnc(Nc2cc(C)n(C)n2)nc1-c1c[nH]c2c(NC(=O)CN3CC[C@H](Oc4cc(C5=CCOCC5)ncn4)C3)cccc12 [Example 251, (S)-2-(3-((6-(3,6-dihydro-2H-pyran-4-yl)pyrimidin-4-yl)oxy)pyrrolidin-1-yl)-N-(3-(2-((1,5-dimethyl-1H-pyrazol-3-yl)amino)-5-methylpyrimidin-4-yl)-1H-indol-7-yl)acetamide] | 7.00 to 8.00 |
| Cc1cnc(Nc2cc(C)n(C)n2)nc1-c1c[nH]c2c(NC(=O)CN3CC[C@H](Oc4nccc(C5=CCC(C)(C)CC5)n4)C3)cccc12 [Example 252, (S)-N-(3-(2-((1,5-dimethyl-1H-pyrazol-3-yl)amino)-5-methylpyrimidin-4-yl)-1H-indol-7-yl)-2-(3-((4-(4,4-dimethylcyclohex-1-en-1-yl)pyrimidin-2-yl)oxy)pyrrolidin-1-yl)acetamide] | 7.00 to 8.00 |
| Cc1cnc(Nc2cc(C)n(C)n2)nc1-c1c[nH]c2c(NC(=O)CN3CC[C@H](Oc4nccc(C5=CCOCC5)n4)C3)cccc12 [Example 253, (S)-2-(3-((4-(3,6-dihydro-2H-pyran-4-yl)pyrimidin-2-yl)oxy)pyrrolidin-1-yl)-N-(3-(2-((1,5-dimethyl-1H-pyrazol-3-yl)amino)-5-methylpyrimidin-4-yl)-1H-indol-7-yl)acetamide] | 7.00 to 8.00 |
| Cc1cnc(Nc2cc(C)n(C)n2)nc1-c1c[nH]c2c(NC(=O)CN3CC[C@H](Oc4nccc(-c5ccccc5)n4)C3)cccc12 [Example 254, (S)-N-(3-(2-((1,5-dimethyl-1H-pyrazol-3-yl)amino)-5-methylpyrimidin-4-yl)-1H-indol-7-yl)-2-(3-((4-phenylpyrimidin-2-yl)oxy)pyrrolidin-1-yl)acetamide] | 7.00 to 8.00 |
| Cc1cnc(Nc2cc(C)n(C)n2)nc1-c1c[nH]c2c(NC(=O)CN3CC[C@H](Oc4ncc(-c5cccnc5)cn4)C3)cccc12 [Example 255, (S)-N-(3-(2-((1,5-dimethyl-1H-pyrazol-3-yl)amino)-5-methylpyrimidin-4-yl)-1H-indol-7-yl)-2-(3-((5-(pyridin-3-yl)pyrimidin-2-yl)oxy)pyrrolidin-1-yl)acetamide] | 7.00 to 8.00 |
| Cc1cnc(Nc2cc(C)n(C)n2)nc1-c1c[nH]c2c(NC(=O)CN3CC[C@H](Oc4ncc(-c5ccncc5)cn4)C3)cccc12 [Example 256, (S)-N-(3-(2-((1,5-dimethyl-1H-pyrazol-3-yl)amino)-5-methylpyrimidin-4-yl)-1H-indol-7-yl)-2-(3-((5-(pyridin-4-yl)pyrimidin-2-yl)oxy)pyrrolidin-1-yl)acetamide] | 7.00 to 8.00 |
| Cc1cnc(Nc2cc(C)n(C)n2)nc1-c1c[nH]c2c(NC(=O)CN3CC[C@H](Oc4cnc(-c5cccnc5)nc4)C3)cccc12 [Example 258, (S)-N-(3-(2-((1,5-dimethyl-1H-pyrazol-3-yl)amino)-5-methylpyrimidin-4-yl)-1H-indol-7-yl)-2-(3-((2-(pyridin-3-yl)pyrimidin-5-yl)oxy)pyrrolidin-1-yl)acetamide] | 7.00 to 8.00 |
| Cc1cnc(Nc2cc(C)n(C)n2)nc1-c1c[nH]c2c(NC(=O)CN3CC[C@H](Oc4cnc(-c5ccncc5)nc4)C3)cccc12 [Example 259, (S)-N-(3-(2-((1,5-dimethyl-1H-pyrazol-3-yl)amino)-5-methylpyrimidin-4-yl)-1H-indol-7-yl)-2-(3-((2-(pyridin-4-yl)pyrimidin-5-yl)oxy)pyrrolidin-1-yl)acetamide] | 7.00 to 8.00 |
| Cc1cnc(Nc2cc(C)n(C)n2)nc1-c1c[nH]c2c(N3C(=O)c4ccccc4C3=O)cccc12 [Example 260, 2-(3-(2-((1,5-dimethyl-1H-pyrazol-3-yl)amino)-5-methylpyrimidin-4-yl)-1H-indol-7-yl)isoindoline-1,3-dione] | > 8.00 |
| Cc1cnc(Nc2cc(C)n(C)n2)nc1-c1c[nH]c2c(N3C(=O)c4cccc(F)c4C3=O)cccc12 [Example 261, 2-(3-(2-((1,5-dimethyl-1H-pyrazol-3-yl)amino)-5-methylpyrimidin-4-yl)-1H-indol-7-yl)-4-fluoroisoindoline-1,3-dione] | > 8.00 |
| Cc1cnc(Nc2cc(C)n(C)n2)nc1-c1c[nH]c2c(N3C(=O)c4cccc(Br)c4C3=O)cccc12 [Example 262, 4-bromo-2-(3-(2-((1,5-dimethyl-1H-pyrazol-3-yl)amino)-5-methylpyrimidin-4-yl)-1H-indol-7-yl)isoindoline-1,3-dione] | > 8.00 |
| Cc1cnc(Nc2cc(C)n(C)n2)nc1-c1c[nH]c2c(N3C(=O)c4cccc(O)c4C3=O)cccc12 [Example 263, 2-(3-(2-((1,5-dimethyl-1H-pyrazol-3-yl)amino)-5-methylpyrimidin-4-yl)-1H-indol-7-yl)-4-hydroxyisoindoline-1,3-dione] | > 8.00 |
